These are literature values, as cited in patent US7147859B2 (Laboratorios Biosintetica LTDA., priority 2000, dated 2006).

SMILES strings stand for the structures.

For the series, the system named is cholesterol absorbance. The conditions noted are these: in vivo.

As for `CCC(CCC(C)C1CCC2C3CC=C4CC(O)CCC4(C)C3CCC12C)C(C)C` (stereo not shown) [Betasitosterol], the “reduction of cholesterol absorbance” value was “up to 68%”.
